# pEC50: −log10 of the molar value.
# Target: T1, human Kv1.3 ion channel (Homo sapiens, UniProt P22001)
# T1 construct: Human Jurkat cells (which endogenously express hKv1.3) were used in place of rat L929 cells; endogenous in cells; host or cells: human Jurkat cells
# Test: Inhibition of Kv1.3 currents, planar patch clamp in human Jurkat cells
# Format: cell-based
# Details: Jurkat cells endogenously expressing hKv1.3, averaged dose response data from 3 or more cells
# Protocol: Potency of compounds to inhibit the human Kv1.3 ion channel were determined as follows:
# EC50 values for inhibition of Kv1.3 currents were determined by the method according to Schmitz et al (2005) Molecular Pharmacology 68, 1254-1270 with the following differences:
# 1. Human Jurkat cells (which endogenously express hKv1.3) were used in place of rat L929 cells.
# 2. All electrophysiology was performed using planar patch clamp (Port-A-Patch, Nanion Technologies Gmbh, Munich) in contrast to conventional patch clamp.
# 3. EC50 values shown were determined from averaged dose response data obtained from 3 or more cells.
# T1 sequence (P22001 whole entry): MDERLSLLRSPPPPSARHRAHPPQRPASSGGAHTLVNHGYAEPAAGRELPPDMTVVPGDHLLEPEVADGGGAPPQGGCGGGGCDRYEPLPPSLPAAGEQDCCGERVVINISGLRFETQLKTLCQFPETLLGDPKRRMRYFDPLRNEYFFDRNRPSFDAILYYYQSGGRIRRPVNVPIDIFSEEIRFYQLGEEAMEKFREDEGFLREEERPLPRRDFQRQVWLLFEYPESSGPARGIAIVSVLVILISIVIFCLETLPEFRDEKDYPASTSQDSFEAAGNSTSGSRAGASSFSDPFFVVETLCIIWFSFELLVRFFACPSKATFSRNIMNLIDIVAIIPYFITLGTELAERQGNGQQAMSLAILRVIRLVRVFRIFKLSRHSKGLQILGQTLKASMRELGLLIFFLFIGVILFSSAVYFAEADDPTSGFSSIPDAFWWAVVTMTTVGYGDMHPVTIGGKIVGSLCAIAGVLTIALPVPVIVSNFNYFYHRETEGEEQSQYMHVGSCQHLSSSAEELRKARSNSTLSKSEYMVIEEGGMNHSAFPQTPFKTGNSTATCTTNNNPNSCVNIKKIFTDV
row,pEC50,SMILES
1,7.52,CSCc1cc(=O)c2c(C)c3ccoc3c(OCCCc3ccccc3)c2o1 [1 c)]
2,7.55,Cc1c2ccoc2c(OCCCc2ccc(F)cc2)c2oc(CN(C)C)cc(=O)c12 [6 c)]
3,6.57,COc1c2ccoc2c(OCCCc2ccccc2)c2oc(CN(C)C)cc(=O)c12 [7 c)]
4,7.85,Cc1c2ccoc2c(OCC[C@@H](C)c2ccccc2)c2oc(CN(C)C)cc(=O)c12 [8 d)]
5,7.54,"Cc1c2ccoc2c(OCCCc2ccccc2)c2oc(CN(C)C)cc(=O)c12 [Example 2, 7-Dimethylaminomethyl-4-methyl-9-(3-phenylpropoxy)furo[3,2-g]chromen-5-one]"
6,6.72,"Cc1c2ccoc2c(OCCCc2ccccc2)c2oc(CN3CCOCC3)cc(=O)c12 [Example 3, 4-Methyl-7-(morpholin-4-ylmethyl)-9-(3-phenylpropoxy)furo[3,2-g]chromen-5-one]"
7,6.70,"Cc1c2ccoc2c(OCCCc2ccccc2)c2oc(CS(C)(=O)=O)cc(=O)c12 [Example 9, 7-Methanesulfonylmethyl-4-methyl-9-(phenyl-propoxy)-furo[3,2-g]chromen-5-one]"

row,SMILES,pEC50
1,"CN(C)Cc1cc(=O)c2c(OCCCCOc3ccccc3)c3ccoc3cc2o1 [Example 5, 7-Dimethylaminomethyl-4-(4-phenoxybutoxy)-furo[3,2-g]chromen-5-one]",5.85

# Source: US8217189B2, “Chromenone potassium channel blockers and uses thereof” (Bionomics Limited, priority 2006, dated 2012)
